Measurements from patent US8703106B2, “Chlorine dioxide treatment for biological tissue” (priority 2009, dated 2014).
Values joined by “and” are separate entries in the source; they are usually repeats but may differ in a detail not shown here. Identical values can stand only once.

Tests used:
[1] = system: total bacteria in wounds; experiment: Pig infected wound model, delivery methods (Example 4); type: in vivo; details: Day 2, 400 ppm chlorine dioxide over two hours, versus moist controls
Text: (§1) The test animal was a pig (n=1). Pigs are commonly used as models for wound healing in part because pig skin shares many characteristics with human skin. The porcine model is considered to be an excellent tool for the evaluation of candidate agents intended for use in human wounds.
(§2) On Day 0, the pig was anesthetized and sixteen […] full-thickness wounds (eight per side) were created using a custom designed 2-cm trephine. Each wound was 2-cm in diameter. An epinephrine solution (1:10,000 dilution) was applied to the wounds on gauze sponges until hemostasis was complete (approximately 10 minutes). Each wound was then infected with a bacterial inoculum.
(§3) Three different bacteria, Pseudomonas aeruginosa, Fusobacterium sp., and coagulase-negative Staphylococci (CNS), were cultured and used to prepare inoculums for the wounds. On the morning of surgery, the bacterial cultures were washed with sterile saline and resuspended in saline to a final density of approximately 10^7 CFU/mL. This bacterial suspension was used to inoculate each wound.
(§4) Wounds were dressed with sterile Telfa gauze, and the infections allowed to mature to establish a bacterial biofilm condition. Telfa dressings were moistened with saline: the excess saline was removed by squeezing the Telfa dressings. The dressing was then secured in place with Transpore tape (3M, St. Paul, Minn.), As a secondary dressing, a blue absorbent pad was used to cover all of the wounds. The absorbent layer of the blue pad was placed against the skin for the first few days. If wounds looked too dry, the blue pad was changed with the occlusive side against the skin. A layer of a layer of elastic bandage was wrapped over the blue pad to prevent movement of the dressings underneath. All wound dressing were changed on Day 1.
(§5) On Day 2, wounds were treated with a chlorine dioxide composition using different delivery methods. In brief, wounds A2-A4 were treated with continuous irrigation. Treatment for wounds B2-B4 and C2-C4 was multiple, substantially contiguous episodes of contact with a substantially non-cytotoxic chlorine dioxide gel composition. Wounds D2-D4 were treated with intermittent irrigation using a manual irrigation device. A1, B1 and D1 were controls and were not treated with chlorine dioxide. C1 was manually treated with a chlorine dioxide solution.
(§6) Wounds A2-A4: Each wound was individually covered with an irrigation device, each having an inlet, port to supply a chlorine dioxide solution and an outlet port for egress of the chlorine, dioxide solution. […]
(§7) The pump was activated to achieve an initial flow rate of approximately 80-82 ml mm through each of the three irrigation chambers. Chlorine dioxide concentrations were measured at the outlets using a UV spectrophotometer. […]

[2] = system: Pseudomonas in wounds; experiment: as above; type: in vivo; details: Day 2, 400 ppm chlorine dioxide over two hours, versus moist controls
Text: as §1, §2, §3, §4, §5, §6, §7

[3] = Tooth whitening with multiple contiguous applications, Vita Classic Shade Guide (Example 7); design: species or system human; details: for ΔSVU, Average: average of five teeth; for ΔSVU: nominal 200 ppm (actual 155 ppm) NaCMC gel, pH 5.0, individual teeth A-E, baseline C4
Text: This study was designed to assess the efficacy on tooth whitening of two different regimens of multiple, contiguous applications of a 200 ppm chlorine dioxide gel. Five human extracted teeth (molars) were used in this study. Each tooth was sectioned twice: first at the tooth's cemento-enamel junction to remove the root portion of the tooth; then sectioned mesio-distally to separate the tooth into two, separate buccal and lingual halves. […] The sectioned teeth were then stained in concentrated black tea (cooled to room temperature after brewing) until each tooth accumulated enough stain to be visually graded as “C4” (hut no lighter than “A4”) per the Vita Classic Shade Vision Guide.
After staining, the cut sides of each tooth were sealed with an acrylic polymer (i.e. acrylic-based nail polish). The tooth was then “split” or functionally “divided” into a left and right sides (the tooth was not physically split). To create “dividing line,” a narrow channel was first created down the center of the tooth (running from the occlusal to the gingival or cervical portion of the tooth) using a narrow tungsten carbide or diamond tip dental bur, thereby creating an approximately 0.5 to 1.5-mm deep by 1 to 1.5-mm wide channel on either the buccal or lingual enamel surface of the tooth segment. The channel was etched carefully with a 34-40% phosphoric acid dental etching gel preparation (being careful to confine the gel only to the enamel within the prepared channel). The etching gel was then removed by water rinsing, the Stir face was dried, and a thin, narrow band of enamel-dentin adhesive was then applied carefully only to the enamel within the narrow channel. The material was allowed to dry in ambient air for 1 minute then carefully dried with a gentle stream of compressed air for an additional 10 seconds. The enamel-dentin adhesive was subsequently cured by exposure to a visible light dental curing unit using actinic blue light at an approximate peak wavelength of 470 nm for multiple, 20 second curing increments. In order to fill in the channel and gradually build a “wall” or harrier to separate the left and right half of the lingual surface of the tooth, a thin, narrow layer or band of composite resin dental restorative material was added in several steps and cured with the dental visible blue-light curing unit.
The wall that was built up on each tooth prevents whitening agent applied on the left side of the tooth to migrate into the whitening agent that was applied on the right side of the tooth, and visa versa. In this way, it is possible to compare two different treatment regimens on the same tooth, thereby minimizing the biological diversity among different teeth that may affect whitening efficacy.
Two treatment regimens were tested, both using a nominal 200 ppm chlorine dioxide gel comprising sodium carboxymethylcellulose (NaCMC). The actual concentration of chlorine dioxide was measured and found to be 155 ppm; pH of the composition was 5.0. The general treatment protocol is as follows. […] The 60 ml syringe was used to store the gel during the assay, and for dispensing gel into a 10 ml plastic syringe. The gel in the 10 ml syringe was then dispensed directly onto the tooth section enamel surfaces as follows. At time zero, about 1 to 1.5 ml gel was dispensed onto the enamel surface of each tooth segment attached to the glass microscope slide. The thickness of the resulting gel layer was about 1.5 to 3.0 mm in depth. After dispensing the gel onto the tooth segments, the glass slide was placed in a plastic zippered bag, containing small strips of wet paper towel within the bag to maintain 100% humidity in the bag. The paper towel strips were positioned to eliminate any contact of the plastic bag with the tooth and gel surfaces.
Upon conclusion of a contact epidose, the glass slide was removed from the plastic bag, and the gel was carefully removed with an extra soft bristle toothbrush and a gentle stream of running tap water. […]

[4] = 30 minutes total exposure, Left: 2 × 15 minutes
[5] = 30 minutes total exposure, Right: 4 × 7.5 minutes
[6] = 60 minutes total exposure, Left: 4 × 15 minutes
[7] = 60 minutes total exposure, Right: 8 × 7.5 minutes

[O][Cl+][O-] [ClO2, chlorine dioxide]
total bacteria reduction [1]: 1-2 logs
reduction of Pseudomonas [2]: ≥ 3 logs
ΔSVU, Average [3, 4]: 11.4 SVU
ΔSVU [3, 4]: 12 SVU (3×) and 10 SVU and 11 SVU
ΔSVU, Average [3, 5]: 12.6 SVU
ΔSVU [3, 5]: 15 SVU and 12 SVU (4×)
ΔSVU, Average [3, 6]: 11.8 SVU
ΔSVU [3, 6]: 12 SVU (4×) and 11 SVU
ΔSVU, Average [3, 7]: 13.6 SVU
ΔSVU [3, 7]: 15 SVU (2×) and 14 SVU and 12 SVU (2×)
improvement of tooth whitening, four applications compared to two applications ([3]; nominal dosage 6000 ppm-min (30 minutes × 200 ppm)): about 10%
improvement of tooth whitening, eight applications over four applications ([3]; nominal dosage 12,000 ppm-min): about 15%
